The source of these data is US20060204481A1, “Methods of promoting cell viability” (priority 2003, published 2006).

The test system of one experiment is 6-OHDA lesioned rats. The experiment in a line: Amphetamine-induced rotation test after nigral grafting in unilateral 6-OHDA lesioned rats. The experiment is classed as in vivo, rat. The source says:
A total of 24 adult female Sprague-Dawley (SD) rats, weighing about 250 grams (g) at the beginning of the experiments were used as subjects of neural grafts. Among them, 12 rats were subjected to an extensive unilateral 6-hydroxydopamine (6-OHDA) lesion of the mesostriatal dopamine (DA) system and 12 rats were normal.
The 6-OHDA lesioned rats and normal rats were randomly assigned to the TUDCA-treated (n=6 in each group) or the vehicle control (n=6 in each group) group, respectively. The rats were housed 2 per cage under a 12 hour day-night cycle with ad libitum access to food and water. They were maintained and treated in accordance with published National Institutes of Health guidelines.
For the TUDCA-treated rats, a 50 μM concentration of TUDCA was added to the media when nigral tissue was trypsinized and dissociated. Two microliters of cell suspension containing TUDCA were then stereotaxically injected into the striatum of SD rats. For the control animals, the same amount of vehicle solution was added to the media. In the first series of transplantation experiment, normal rats that received neural transplants were sacrificed 4 days post-grafting and brain sections were prepared for the terminal deoxynucleotidyl transferase (TdT)-mediated dUTP-biotin nick end labeling (TUNEL) assay to determine apoptosis in the transplantation areas. In the second series of transplantation experiments, an amphetamine-induced rotation test was used to assess the completeness of the 6-OHDA lesions prior to grafting, and repeated two and six weeks after transplantation to monitor functional effects of the neural grafts. The rats were sacrificed after the last session of the rotational behavioral test and the brain tissue was processed for tyrosine hydroxylase (TH)-immunocytochemistry. Graft survival was assessed by counting the number of TH-positive neurons in the grafts.
Two injections of 6-OHDA (hydrochloride salt, Sigma, St. Louis Mo.) were made into the right ascending mesostriatal DA pathway under equithesin anaesthesia (0.3 ml/100 g body wt. i.p.) as described previously (W.-M. Duan et al., Neuroscience 57:261-274; 1993). Briefly, a first injection of 2.5 microliter (μl) of 6-OHDA (3 microgram/microliter (μg/μl), free base, in 0.2 mg/ml ascorbate-saline) was performed at the following coordinates: 4.4 millimeter (mm) caudal to bregma; 1.2 mm lateral to midline; 7.8 mm ventral to the dural surface; with the tooth-bar set at 2.4 mm below the interaural line. A second injection of 2 μl of 6-OHDA was performed at the following coordinates; 4.0 millimeter (mm) caudal to bregma; 0.8 mm lateral to midline; 8.0 mm ventral to the dural surface; with the tooth-bar set at 3.4 mm above the interaural line. The 6-OHDA was infused at a rate of 1 μl/min, and the cannula was left in place for an additional 4 min before it was withdrawn.
Two to three weeks after the lesion surgery, the rats were given 5 milligram per kilogram (mg/kg) of d-amphetamine sulphate (Sigma, St. Louis Mo.) in saline, i.p. and their rotational behavior was monitored in automated rotometer bowls for 90 min (U. Ungerstedt et al., Brain Res. 24: 485-493; 1970). […] The rotational test was then repeated at two different time-points as mentioned in the experimental design.
A cell suspension technique was used to perform the neural transplants as previously described (A. Björklund et al., Acta. Physiol. Scand. Suppl. 522:9-18; 1983; P. Brundin et al., In: P. M. Conn, ed., Methods in Neurosciences, Lesions and Transplantation, Academic Press, San Diego, Vol 7, 1991:305-326). Briefly, VM tissue was obtained from embryos with a crown-to-rump length of 13-14 mm, corresponding to a gestational age of embryonic day 14. Dissection and preparation of the donor tissue were carried out under aseptic conditions in Hank's balanced salt solution (HBSS) (Gibco, Carlsbad, Calif.). […]

The subject of experiment [1] is TH-immunoreactive neurons in intrastriatal nigral grafts. The experiment in a line: Graft survival: TH-immunocytochemistry and graft volume 6 weeks after transplantation. The class given is in vivo, rat.
The next experiment deals with pancreatic islet cells. In words: Apoptosis (TUNEL) of pancreatic islet cells in vitro. The experiment is classed as cell-based. To be noted: 2 days in vitro. On the procedure:
As another example, TUDCA was also effective in reducing apoptosis of pancreatic islet cells after 2 days in vitro. The number of TUNEL-positive cells was approximately 29 in non-treated controls, but only 12 in cells exposed to TUDCA. The more than 50% reduction by apoptosis by TUDCA was achieved after exposure of cells to TUDCA during the isolation procedure, followed by incubation with the bile acid during culture in vitro.

The test system of the next experiment is striatal tissue cultures. To be noted: cited from earlier work.

Consider `C[C@H](CCC(=O)NCCS(=O)(=O)O)[C@H]1CC[C@H]2[C@@H]3[C@@H](O)C[C@@H]4C[C@H](O)CC[C@]4(C)[C@H]3CC[C@]12C` [TUDCA, tauroursodeoxycholic acid], for which the “mean net rotation values compared to pregrafting values” in the experiment with 6-OHDA lesioned rats (2 weeks after grafting, p<0.01, not in control group) is “significantly reduced”. Also, the “rats exhibiting at least 50% reduction in net motor asymmetry compared to pre-transplantation values” with 6-OHDA lesioned rats (2 weeks after transplantation, cell suspension pre-treated with 50 μM TUDCA, none of the control animals) was 4 of 6. In the experiment on 6-OHDA lesioned rats (2 weeks after transplantation, p<0.05), the “net asymmetry values compared to control group” value is reported as “lower net asymmetry values than the control group”. Besides, the “motor asymmetry scores compared to pregrafting” value in the experiment on 6-OHDA lesioned rats (6 weeks after surgery, p<0.05, both groups) is reported as “significantly reduced motor asymmetry scores”. The “difference in motor asymmetry scores between TUDCA-treated and control groups” value with 6-OHDA lesioned rats (6 weeks after surgery, p>0.05) is reported as “not longer any difference”. In addition, the “reduction in motor asymmetry scores” value in the experiment on 6-OHDA lesioned rats (6 weeks following transplantation, all rats of both control and TUDCA-treated groups) is > 50%. Moreover, the “areas of the host striatum reinnervated by the grafts compared to control group” value in experiment [1] was “larger”. In experiment [1] (p<0.05), the “graft volume compared to control group” value was “significantly larger”. Also, the “number of TUNEL-positive cells” value in the experiment on pancreatic islet cells (TUDCA during isolation and culture, non-treated controls approximately 29) amounted to 12. For the same compound, the reduction of apoptosis entry in the experiment on pancreatic islet cells (versus non-treated controls) was “more than 50%”. Moreover, the “3-nitropropionic acid (3-NP)-mediated neuronal cell death” value in the experiment with striatal tissue cultures is given as “significantly reduces”.
